Measured values reported in patent US12077503B2, “Substituted cyclic amides and their use as herbicides” (FMC CORPORATION, priority 2015, dated 2024).

Tests used:
Assay type in all cases: in vivo
corn (Zea mays) [1] = test: Test G Post-Emergence Protocol; details: Zea mays, post-emergence, 312 h, read-out: Corn damage rating; for plant injury at 15.625 g/ha: 15.625 g ai/ha, evaluated after 13 days (100=total damage to plant; 0=no damage to plant); for plant injury at 62.5 g/ha: 62.5 g ai/ha; for plant injury at 62.5 g/ha / plant injury at 250 g/ha: evaluated after 13 days, 100=total damage to plant, 0=no damage to plant; for plant injury at 250 g/ha: 250 g ai/ha
Procedure, shortened: (§1)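 Values are percent visual injury at 13 days after treatment (0 none, 100 total). Treatment was a post-emergence spray at 15.625, 62.5 or 250 g/ha on 8-day-old pot plants kept at 24/16 °C.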

[2] = tested on: ivy-leaved morning glory (Ipomoea hederacea); test: Test G Post-Emergence Protocol; details: Ipomoea, post-emergence, 312 h, read-out: Morningglory, Ivy-leaved damage rating; for pest or weed control at 15.625 g/ha: 15.625 g ai/ha, evaluated after 13 days (100=total damage to plant; 0=no damage to plant); for pest or weed control at 62.5 g/ha: 62.5 g ai/ha; for pest or weed control at 62.5 g/ha / pest or weed control at 250 g/ha: evaluated after 13 days, 100=total damage to plant, 0=no damage to plant; for pest or weed control at 250 g/ha: 250 g ai/ha
Procedure, shortened: as §1

[3] = tested on: giant foxtail (Setaria faberi); test: Test G Post-Emergence Protocol; details: Setaria faberi, post-emergence, 312 h, read-out: Foxtail, Giant damage rating; for pest or weed control at 15.625 g/ha: 15.625 g ai/ha, evaluated after 13 days (100=total damage to plant; 0=no damage to plant); for pest or weed control at 62.5 g/ha: 62.5 g ai/ha; for pest or weed control at 62.5 g/ha / pest or weed control at 250 g/ha: evaluated after 13 days, 100=total damage to plant, 0=no damage to plant; for pest or weed control at 250 g/ha: 250 g ai/ha
Procedure, shortened: as §1

[4] = tested on: barnyardgrass (Echinochloa crus-galli); test: Test G Post-Emergence Protocol; details: Echinochloa crus-galli, post-emergence, 312 h, read-out: Barnyardgrass damage rating; for pest or weed control at 15.625 g/ha: 15.625 g ai/ha, evaluated after 13 days (100=total damage to plant; 0=no damage to plant); for pest or weed control at 62.5 g/ha: 62.5 g ai/ha; for pest or weed control at 62.5 g/ha / pest or weed control at 250 g/ha: evaluated after 13 days, 100=total damage to plant, 0=no damage to plant; for pest or weed control at 250 g/ha: 250 g ai/ha
Procedure, shortened: as §1

[5] = tested on: velvetleaf (Abutilon theophrasti); test: Test G Post-Emergence Protocol; details: Abutilon theophrasti, post-emergence, 312 h, read-out: Velvetleaf damage rating; for pest or weed control at 15.625 g/ha: 15.625 g ai/ha, evaluated after 13 days (100=total damage to plant; 0=no damage to plant); for pest or weed control at 62.5 g/ha: 62.5 g ai/ha; for pest or weed control at 62.5 g/ha / pest or weed control at 250 g/ha: evaluated after 13 days, 100=total damage to plant, 0=no damage to plant; for pest or weed control at 250 g/ha: 250 g ai/ha
Procedure, shortened: as §1

[6] = tested on: redroot pigweed (Amaranthus retroflexus); test: Test G Post-Emergence Protocol; details: Amaranthus retroflexus, post-emergence, 312 h, read-out: Pigweed, Redroot damage rating; for pest or weed control at 15.625 g/ha: 15.625 g ai/ha, evaluated after 13 days (100=total damage to plant; 0=no damage to plant); for pest or weed control at 62.5 g/ha: 62.5 g ai/ha; for pest or weed control at 62.5 g/ha / pest or weed control at 250 g/ha: evaluated after 13 days, 100=total damage to plant, 0=no damage to plant; for pest or weed control at 250 g/ha: 250 g ai/ha
Procedure, shortened: as §1

corn (Zea mays) [7] = test: Test G Pre-Emergence Protocol; details: Zea mays, pre-emergence, 312 h, evaluated after 13 days; for plant injury at 15.625 g/ha: 15.625 g ai/ha; for plant injury at 15.625 g/ha / plant injury at 250 g/ha: read-out: Corn damage rating (100=total damage to plant; 0=no damage to plant); for plant injury at 62.5 g/ha: 62.5 g ai/ha, 100=total damage to plant, 0=no damage to plant, read-out: Corn damage rating; for plant injury at 250 g/ha: 250 g ai/ha
Procedure, shortened: (§2)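 One day after sowing, pots are treated with a spray of test compound formulated in acetone/water 50:50 plus 0.5% Tween 20, giving 15.625, 62.5 or 250 g/ha. Evaluation on a 0–100 damage scale follows 13 days of glasshouse growth.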

[8] = tested on: ivy-leaved morning glory (Ipomoea hederacea); test: Test G Pre-Emergence Protocol; details: Ipomoea, pre-emergence, 312 h, evaluated after 13 days; for pest or weed control at 15.625 g/ha: 15.625 g ai/ha; for pest or weed control at 15.625 g/ha / pest or weed control at 250 g/ha: read-out: Morningglory, Ivy-leaved damage rating (100=total damage to plant; 0=no damage to plant); for pest or weed control at 62.5 g/ha: 62.5 g ai/ha, 100=total damage to plant, 0=no damage to plant, read-out: Morningglory, Ivy-leaved damage rating; for pest or weed control at 250 g/ha: 250 g ai/ha
Procedure, shortened: as §2

[9] = tested on: giant foxtail (Setaria faberi); test: Test G Pre-Emergence Protocol; details: Setaria faberi, pre-emergence, 312 h, evaluated after 13 days; for pest or weed control at 15.625 g/ha: 15.625 g ai/ha; for pest or weed control at 15.625 g/ha / pest or weed control at 250 g/ha: read-out: Foxtail, Giant damage rating (100=total damage to plant; 0=no damage to plant); for pest or weed control at 62.5 g/ha: 62.5 g ai/ha, 100=total damage to plant, 0=no damage to plant, read-out: Foxtail, Giant damage rating; for pest or weed control at 250 g/ha: 250 g ai/ha
Procedure, shortened: as §2

[10] = tested on: barnyardgrass (Echinochloa crus-galli); test: Test G Pre-Emergence Protocol; details: Echinochloa crus-galli, pre-emergence, 312 h, evaluated after 13 days; for pest or weed control at 15.625 g/ha: 15.625 g ai/ha; for pest or weed control at 15.625 g/ha / pest or weed control at 250 g/ha: read-out: Barnyardgrass damage rating (100=total damage to plant; 0=no damage to plant); for pest or weed control at 62.5 g/ha: 62.5 g ai/ha, 100=total damage to plant, 0=no damage to plant, read-out: Barnyardgrass damage rating; for pest or weed control at 250 g/ha: 250 g ai/ha
Procedure, shortened: as §2

[11] = tested on: velvetleaf (Abutilon theophrasti); test: Test G Pre-Emergence Protocol; details: Abutilon theophrasti, pre-emergence, 312 h, evaluated after 13 days; for pest or weed control at 15.625 g/ha: 15.625 g ai/ha; for pest or weed control at 15.625 g/ha / pest or weed control at 250 g/ha: read-out: Velvetleaf damage rating (100=total damage to plant; 0=no damage to plant); for pest or weed control at 62.5 g/ha: 62.5 g ai/ha, 100=total damage to plant, 0=no damage to plant, read-out: Velvetleaf damage rating; for pest or weed control at 250 g/ha: 250 g ai/ha
Procedure, shortened: as §2

[12] = tested on: redroot pigweed (Amaranthus retroflexus); test: Test G Pre-Emergence Protocol; details: Amaranthus retroflexus, pre-emergence, 312 h, evaluated after 13 days; for pest or weed control at 15.625 g/ha: 15.625 g ai/ha; for pest or weed control at 15.625 g/ha / pest or weed control at 250 g/ha: read-out: Pigweed, Redroot damage rating (100=total damage to plant; 0=no damage to plant); for pest or weed control at 62.5 g/ha: 62.5 g ai/ha, 100=total damage to plant, 0=no damage to plant, read-out: Pigweed, Redroot damage rating; for pest or weed control at 250 g/ha: 250 g ai/ha
Procedure, shortened: as §2

`CN1CCC(NC(=O)[C@H]2C(=O)N(C)C[C@@H]2c2ccc(C(F)(F)F)cc2)C1=O` (mixture of isomers) [Compound 1673] was tested, and the plant injury at 15.625 g/ha (corn (Zea mays) [1]) was 0%, the plant injury at 62.5 g/ha (corn (Zea mays) [1]) was 0% and the plant injury at 250 g/ha (corn (Zea mays) [1]) was 0%. For the same compound, the pest or weed control at 15.625 g/ha [2] was 0%, the pest or weed control at 62.5 g/ha [2] was 0% and the pest or weed control at 250 g/ha [2] was 0%. It also gave a pest or weed control at 15.625 g/ha [3] of 0%, a pest or weed control at 62.5 g/ha [3] of 0% and a pest or weed control at 250 g/ha [3] of 10%. The pest or weed control at 15.625 g/ha [4] was 0%, the pest or weed control at 62.5 g/ha [4] was 0% and the pest or weed control at 250 g/ha [4] was 0%. It also gave a pest or weed control at 15.625 g/ha [5] of 0%, a pest or weed control at 62.5 g/ha [5] of 0% and a pest or weed control at 250 g/ha [5] of 0%. It also gave a pest or weed control at 15.625 g/ha [6] of 0%, a pest or weed control at 62.5 g/ha [6] of 0% and a pest or weed control at 250 g/ha [6] of 0%. It also gave a plant injury at 15.625 g/ha (corn (Zea mays) [7]) of 0%, a plant injury at 62.5 g/ha (corn (Zea mays) [7]) of 0% and a plant injury at 250 g/ha (corn (Zea mays) [7]) of 0%. The pest or weed control at 15.625 g/ha [8] was 0%, the pest or weed control at 62.5 g/ha [8] was 0% and the pest or weed control at 250 g/ha [8] was 0%. For the same compound, the pest or weed control at 15.625 g/ha [9] was 0%, the pest or weed control at 62.5 g/ha [9] was 0% and the pest or weed control at 250 g/ha [9] was 0%. It also gave a pest or weed control at 15.625 g/ha [10] of 0%, a pest or weed control at 62.5 g/ha [10] of 0% and a pest or weed control at 250 g/ha [10] of 0%. The pest or weed control at 15.625 g/ha [11] was 0%, the pest or weed control at 62.5 g/ha [11] was 0% and the pest or weed control at 250 g/ha [11] was 0%. For the same compound, the pest or weed control at 15.625 g/ha [12] was 0%, the pest or weed control at 62.5 g/ha [12] was 0% and the pest or weed control at 250 g/ha [12] was 0%.
`CN1C[C@H](c2ccc(C(F)(F)F)cc2)[C@@H](C(=O)Nc2cnccc2[S+](C)[O-])C1=O` (mixture of isomers) [Compound 1751] was tested, and the plant injury at 15.625 g/ha (corn (Zea mays) [1]) was 0%, the plant injury at 62.5 g/ha (corn (Zea mays) [1]) was 0% and the plant injury at 250 g/ha (corn (Zea mays) [1]) was 0%. For the same compound, the pest or weed control at 15.625 g/ha [2] was 0%, the pest or weed control at 62.5 g/ha [2] was 0% and the pest or weed control at 250 g/ha [2] was 0%. It also gave a pest or weed control at 15.625 g/ha [3] of 0%, a pest or weed control at 62.5 g/ha [3] of 0% and a pest or weed control at 250 g/ha [3] of 10%. It also gave a pest or weed control at 15.625 g/ha [4] of 0%, a pest or weed control at 62.5 g/ha [4] of 0% and a pest or weed control at 250 g/ha [4] of 0%. It also gave a pest or weed control at 15.625 g/ha [5] of 0%, a pest or weed control at 62.5 g/ha [5] of 0% and a pest or weed control at 250 g/ha [5] of 10%. The pest or weed control at 15.625 g/ha [6] was 0%, the pest or weed control at 62.5 g/ha [6] was 0% and the pest or weed control at 250 g/ha [6] was 10%. For the same compound, the plant injury at 15.625 g/ha (corn (Zea mays) [7]) was 0%, the plant injury at 62.5 g/ha (corn (Zea mays) [7]) was 0% and the plant injury at 250 g/ha (corn (Zea mays) [7]) was 0%. The pest or weed control at 15.625 g/ha [8] was 0%, the pest or weed control at 62.5 g/ha [8] was 0% and the pest or weed control at 250 g/ha [8] was 0%. It also gave a pest or weed control at 15.625 g/ha [9] of 0%, a pest or weed control at 62.5 g/ha [9] of 0% and a pest or weed control at 250 g/ha [9] of 10%. For the same compound, the pest or weed control at 15.625 g/ha [10] was 0%, the pest or weed control at 62.5 g/ha [10] was 0% and the pest or weed control at 250 g/ha [10] was 0%. It also gave a pest or weed control at 15.625 g/ha [11] of 0%, a pest or weed control at 62.5 g/ha [11] of 0% and a pest or weed control at 250 g/ha [11] of 0%. For the same compound, the pest or weed control at 15.625 g/ha [12] was 0%, the pest or weed control at 62.5 g/ha [12] was 0% and the pest or weed control at 250 g/ha [12] was 10%.
